Test results taken from ChEMBL document CHEMBL1150256, “Kahalalides V-Y isolated from a Hawaiian collection of the sacoglossan mollusk Elysia rufescens” (2008).
Activity calls are given as the source filed them. No cut-off for these calls is given here.

Columns and labels:
PC-3 = experiment: Growth inhibition of human PC3 cells; assay type: functional
DU-145 = experiment: Growth inhibition of human DU145 cells; assay type: functional
Mus musculus = experiment: Antidepressant activity in Swiss Webster mouse at 0 to10 mg/kg, ip by forced swim test; assay type: functional, organism-based

SMILES | growth inhibition (GI) (PC-3) | growth inhibition (GI) (DU-145) | Activity (Mus musculus)
C/C=C1\NC(=O)[C@H](Cc2ccccc2)NC(=O)[C@@H](C(C)C)NC(=O)[C@@H]([C@H](C)CC)NC(=O)[C@H](NC(=O)[C@H](NC(=O)[C@H](CCCN)NC(=O)[C@H]2CCCN2C(=O)[C@H](NC(=O)[C@@H](NC(=O)[C@@H](NC(=O)[C@H](NC(=O)CCCC(C)C)C(C)C)[C@@H](C)O)C(C)C)C(C)C)[C@H](C)CC)[C@H](C)OC(=O)[C@H](C(C)C)NC1=O [KAHALALIDE F] | 40% | 40% | –
CC(C)CCC[C@H]1CC(=O)N[C@H](Cc2c[nH]c3ccccc23)C(=O)N2CCC[C@H]2C(=O)N[C@@H](CCCNC(=N)N)C(=O)O1 | – | – | inactive
